Measurements from patent US20190008864A1, “PHARMACEUTICAL COMPOSITION CONTAINING GPR119 LIGAND AS EFFECTIVE INGREDIENT FOR PREVENTING OR TREATING NON-ALCOHOLIC STEATOHEPATITIS” (PHARMEDIX.CO., LTD., priority 2014, published 2019).

Tests used:
[1] = tested on: mouse liver tissue and hepatocyte line; assay: Summary statement: mouse liver tissue and hepatocyte line treated with the two GPR119 ligands; format: cell-based
[2] = tested on: non-alcoholic steatohepatitis (NASH) animal models induced by methionine-choline deficient diet; assay: NASH animal model induced by methionine-choline deficient diet; format: in vivo, C57BL/6J mice; details: MCD diet 4 weeks, 10 and 30 mg/kg oral
Excerpt: A liver fibrosis-inducing diet in the present invention is a methionine and choline-deficient (MCD) diet. Six-week-old male C57BL/6J mice (Central Lab. Animal Inc., Seoul, Korea) were acclimated to an experimental environment for one week while being fed solid food, and then randomly divided into a control group and an experimental group for the MCD diet using a randomized block design. The animal groups were fed for 4 weeks, and thus, liver fibrosis animal models were established. Liver fibrosis development was determined according to blood biochemical and histochemical analysis methods. The mice were orally fed once a day for five days every week with a GPR119 ligand (10 mg/kg and 30 mg/kg), which was suspended in 40% PEG400, in combination with the MCD diet. After terminating the experiment, the experimental animals fasted for 12 hours or more. Subsequently, blood and liver samples were collected from the animals, which had been anesthetized with diethyl ether, and then washed with a 0.1 M phosphate buffered saline (pH 7.4), followed by being weighed. […] Serum Lactate dehydrogenase (LDH) from the experimental animals raised for 4 weeks was measured as follows. The serum LDH was measured using a commercially available measurement kit (Bio Clinical system). […] Steatosis, ballooning, and lobular inflammation were blindly assessed by pathologists.

[3] = tested on: fatty liver model induced by a high-fat diet; assay: Fatty liver model induced by high-fat diet; format: in vivo, C57BL/6J mice
Excerpt: In the present invention, a high fat diet (HFD: 60% fat calories, Research diets, D12492, US) was used as an obesity induction diet.
Six-week-old male C57BL/6J mice (Central Lab. Animal Inc., Seoul, Korea) were acclimated to an experimental environment for one week while being fed solid food, and then randomly divided into a control group and an experimental group for a high-fat diet using a randomized block design. The animal groups were fed for 12 weeks, and thus, fatty liver animal models were established. Fatty liver development was determined according to blood biochemical and histochemical analysis methods. The mice were orally fed with the high-fat diet only for six weeks, and in combination with a GPR119 ligand (10 mg/kg) suspended in 40% PEG400 once a day for five days every week. Choline-deficient, amino acid-fixed high-fat diet steatohepatitis models were prepared by feeding six-week-old male C57BL/6J mice (Central Lab. Animal Inc., Seoul) with a diet containing 60 kcal fat and 0.1% methionine for four weeks. After terminating the experiment, experimental animals fasted for 12 hours or more. Subsequently, blood, liver, and adipose tissues in intestines (epididymal fat, kidney-surrounding fat) were collected from the animals that had been anesthetized with diethyl ether and then washed with a 0.1 M phosphate buffered saline (pH 7.4), followed by being weighed. Blood collected from abdominal aortas was centrifuged at 3000 rpm for 20 minutes using SST tubes to separate serum.
A total cholesterol concentration and a total glucose concentration in serum from each of the aforementioned experimental animals raised for 12 weeks were measured as follows. Each of the total cholesterol concentration and the total glucose concentration in serum was measured twice by means of a commercial measurement kit (Bio Clinical Systems). The amount of alanine aminotransferase (ALT) in blood used as a liver function index was measured by means of a commercial analysis kit (Bio Clinical Systems, Korea).
The collected liver tissues were fixed with a 10% neutral formalin solution and then subjected to a common fixation procedure and dehydration process, followed by embedding the same in paraffin. The embedded tissues were sectioned to a thickness of 4 μm and stained with H&E. The stained tissues were observed by means of an optical microscope.
A predetermined amount of each of the liver tissues was homogenized in liquid nitrogen and a cell lysis buffer in a mortar, and then a lysed tissue solution was transferred to a new tube, followed by vortexing. […] A middle layer of the centrifuged solution was collected and then subjected to protein quantification by the Bradford assay. […] Expression changes of FAS and SREBP-1c proteins were measured by western blotting. […]

CCc1cnc(N2CCC(c3nc(COc4ccc(-n5cnnn5)cc4)cs3)CC2)nc1 [MBX2982, 4-((4-(1H-tetrazol-1-yl)phenoxy)methyl)-2-(1-(5-ethylpyrimidin-2-yl)piperidin-4-yl)thiazole]
activity of SREBP-1c [1]: inhibited | expression of GPR119 [1]: increased | expression of acetyl CoA carboxylase (ACC) [1]: inhibited | expression of fatty acid synthase (FAS) [1]: inhibited | expression of stearoyl-CoA desaturase (SCD) [1]: inhibited | lobular inflammation (NAFLD activity score) [2]: inhibited | other markers (steatosis, ballooning, serum LDH) [2]: did not show significant changes | fatty liver development ([3]; animal models fed with a high-fat diet): completely inhibited | fat weight in the tissue ([3]; high-fat diet mice, 10 mg/kg oral): significantly decreased | mRNA level of GPR119 in liver ([3]; mice administered ligand, compared to a control group): seven-fold increased
